Data taken from patent US20210128566A1, “NOVEL FUNCTIONALIZED PURINE-2,6-DIONES AND THEIR USE IN MEDICINE” (THOMAS HELLEDAYS STIFTELSE FÖR MEDICINSK FORSKNING, priority 2017, published 2021).

target: recombinant human NUDT5 (Homo sapiens, UniProt Q9UKK9); assay: NUDT5 inhibitor activity by malachite green reporter assay; type: biochemical; conditions: Table 3; 6 nM NUDT5, 50 μM ADP-Ribose, 15 minutes at room temperature
Experimental: NUDT5 inhibitors were evaluated using a coupled enzymatic assay with detection of inorganic phosphate (Pi) using the malachite green assay. Following enzymatic hydrolysis of ADP-Ribose (Sigma-Aldrich A0572) by NUDT5, to yield AMP and ribose-5-phosphate, the latter product is continuously processed by a significant excess of alkaline phosphatase (Sigma-Aldrich, P0114). Formation of Pi is quantified based on the green complex (that absorbs at 630 nm) formed between malachite green and molybdate according to published procedure (Baykov, A. A., Evtushenko, O. A. and Avaeva, S. M., Anal Biochem, 171, 266-270 (1988)). Assay buffer consisted of 10 mM Tris-acetate at pH 8.0, 40 mM sodium chloride, 10 mM magnesium acetate, 0.005% Tween-20 and 1 mM dithiothreitol (DTT). The final conditions consisted of 6 nM recombinant human NUDT5, 50 μM ADP-Ribose and 10 U/ml of calf intestine alkaline phosphatase. The plates with compounds, enzymes and substrate were incubated at room temperature for 15 minutes, after which the reaction was terminated and the signal developed by the addition of the malachite green reagent using a MultiDrop (Thermo Scientific). Following vigorous shaking on plate shakers for a minimum of eight minutes the absorbance was read in a microplate reader (HidexSense) using a filter at 630 nm and a read time of 0.1 s per well. Inhibitors were used in dilutions from 100 μM to 1.7 nM in 3-fold dilution steps. Experiments were run in duplicate and confirmed in two independent experiments. IC50 values were determined by curve fitting using ExcelFit.

Row | Structure (SMILES) | IC50
1 | Cc1nc2c(c(=O)n(C)c(=O)n2C)n1Cc1nnc(-c2ccc(Cl)c(Cl)c2)o1 [Example 60, 7-{[5-(3,4-dichlorophenyl)-1,3,4-oxadiazol-2-yl]methyl}-1,3,8-trimethyl-2,3,6,7-tetrahydro-1H-purine-2,6-dione] | 0.0284 µM
2 | Cn1c(=O)c2c(nc(N3CC4CCCCC4C3)n2Cc2nnc(-c3ccc(Cl)c(Cl)c3)o2)n(C)c1=O (stereo not shown) [Example 11, 7-{[5-(3,4-dichlorophenyl)-1,3,4-oxadiazol-2-yl]methyl}-1,3-dimethyl-8-(octahydro-1H-isoindol-2-yl)-2,3,6,7-tetrahydro-1H-purine-2,6-dione] | 0.0846 µM
3 | Cn1c(=O)c2c(nc(N3CCN(CCN)CC3)n2Cc2nnc(-c3ccc(Cl)c(Cl)c3)o2)n(C)c1=O [Example 30, 8-[4-(2-aminoethyl)piperazin-1-yl]-7-{[5-(3,4-dichlorophenyl)-1,3,4-oxadiazol-2-yl]methyl}-1,3-dimethyl-2,3,6,7-tetrahydro-1H-purine-2,6-dione] | 0.0332 µM
4 | CCCCCCN1CCN(c2nc3c(c(=O)n(C)c(=O)n3C)n2Cc2nnc(-c3cccc(C)c3)o2)CC1 [Example 53, 8-(4-hexylpiperazin-1-yl)-1,3-dimethyl-7-{[5-(3-methylphenyl)-1,3,4-oxadiazol-2-yl]methyl}-2,3,6,7-tetrahydro-1H-purine-2,6-dione] | 0.806 µM
5 | Cn1c(=O)c2c(nc(N3CCCC(O)C3)n2Cc2nnc(-c3ccc(Cl)c(Cl)c3)o2)n(C)c1=O (stereo not shown) [Example 44, 7-{[5-(3,4-dichlorophenyl)-1,3,4-oxadiazol-2-yl]methyl}-8-(3-hydroxypiperidin-1-yl)-1,3-dimethyl-2,3,6,7-tetrahydro-1H-purine-2,6-dione] | 0.0215 µM
6 | Cn1c(=O)c2c(nc(N3CCCC3)n2Cc2nnc(-c3ccc(Cl)c(Cl)c3)o2)n(C)c1=O [Example 28, 7-{[5-(3,4-dichlorophenyl)-1,3,4-oxadiazol-2-yl]methyl}-1,3-dimethyl-8-(pyrrolidin-1-yl)-2,3,6,7-tetrahydro-1H-purine-2,6-dione] | 0.037 µM
7 | CC1CCN(c2nc3c(c(=O)n(C)c(=O)n3C)n2Cc2nnc(-c3ccc(Cl)c(Cl)c3)o2)CC1 [Example 10, 7-{[5-(3,4-dichlorophenyl)-1,3,4-oxadiazol-2-yl]methyl}-1,3-dimethyl-8-(4-methylpiperidin-1-yl)-2,3,6,7-tetrahydro-1H-purine-2,6-dione] | 0.0229 µM
8 | Cc1cccc(-c2nnc(Cn3c(N4CCN(CCO)CC4)nc4c3c(=O)n(C)c(=O)n4C)o2)c1 [Example 56, 8-[4-(2-hydroxyethyl)piperazin-1-yl]-1,3-dimethyl-7-{[5-(3-methylphenyl)-1,3,4-oxadiazol-2-yl]methyl}-2,3,6,7-tetrahydro-1H-purine-2,6-dione] | 0.922 µM
9 | CCN1CCN(c2nc3c(c(=O)n(C)c(=O)n3C)n2Cc2nnc(-c3cccc(C)c3)o2)CC1 [Example 55, 8-(4-ethylpiperazin-1-yl)-1,3-dimethyl-7-{[5-(3-methylphenyl)-1,3,4-oxadiazol-2-yl]methyl}-2,3,6,7-tetrahydro-1H-purine-2,6-dione] | 0.221 µM

same assay, conditions: Table 4; 6 nM NUDT5, 50 μM ADP-Ribose, 15 minutes at room temperature

Row | Structure (SMILES) | IC50
10 | Cn1c(=O)c2c(nc(N3CCNCC3)n2Cc2cn(-c3ccc(Cl)c(Cl)c3)nn2)n(C)c1=O [Example 144, 7-{[1-(3,4-dichlorophenyl)-1H-1,2,3-triazol-4-yl]methyl}-1,3-dimethyl-8-(piperazin-1-yl)-2,3,6,7-tetrahydro-1H-purine-2,6-dione] | 0.155 µM
11 | Cn1c(=O)c2c(nc(Cl)n2Cc2nnc(-c3cccnc3)o2)n(C)c1=O [Example 94, 8-chloro-1,3-dimethyl-7-{[5-(pyridin-3-yl)-1,3,4-oxadiazol-2-yl]methyl}-2,3,6,7-tetrahydro-1H-purine-2,6-dione] | 6.91 µM
12 | COc1ccc(CNc2nc3c(c(=O)n(C)c(=O)n3C)n2Cc2nnc(-c3ccc(Cl)c(Cl)c3)o2)c(OC)c1 [Example 86, 7-{[5-(3,4-dichlorophenyl)-1,3,4-oxadiazol-2-yl]methyl}-8-{[(2,4-dimethoxyphenyl)methyl]amino}-1,3-dimethyl-2,3,6,7-tetrahydro-1H-purine-2,6-dione] | 0.184 µM
13 | COc1cc(-c2nnc(Cn3c(N4CCNCC4)nc4c3c(=O)n(C)c(=O)n4C)o2)ccc1Cl [Example 117, 7-{[5-(4-chloro-3-methoxyphenyl)-1,3,4-oxadiazol-2-yl]methyl}-1,3-dimethyl-8-(piperazin-1-yl)-2,3,6,7-tetrahydro-1H-purine-2,6-dione] | 0.0642 µM
14 | Cn1c(=O)c2c(nc(Cl)n2Cc2nnc(-c3ccc(CS(C)(=O)=O)cc3)o2)n(C)c1=O [Example 103, 8-chloro-7-({5-[4-(methanesulfonylmethyl)phenyl]-1,3,4-oxadiazol-2-yl}methyl)-1,3-dimethyl-2,3,6,7-tetrahydro-1H-purine-2,6-dione] | 61.6 µM
15 | Cn1c(=O)c2c(nc(N3CCC(C(N)=O)CC3)n2Cc2nnc(-c3ccc(Cl)c(Cl)c3)o2)n(C)c1=O [Example 136, 1-(7-{[5-(3,4-dichlorophenyl)-1,3,4-oxadiazol-2-yl]methyl}-1,3-dimethyl-2,6-dioxo-2,3,6,7-tetrahydro-1H-purin-8-yl)piperidine-4-carboxamide] | 0.00827 µM
16 | COc1cc(-c2nnc(Cn3c(N4CCC(C(N)=O)CC4)nc4c3c(=O)n(C)c(=O)n4C)o2)ccc1C [Example 138, 1-(7-{[5-(3-methoxy-4-methylphenyl)-1,3,4-oxadiazol-2-yl]methyl}-1,3-dimethyl-2,6-dioxo-2,3,6,7-tetrahydro-1H-purin-8-yl)piperidine-4-carboxamide] | 0.0334 µM
17 | Cn1c(=O)c2c(nc(N3CCNCC3)n2Cc2nnc(-c3ccc(C#N)cc3)o2)n(C)c1=O [Example 112] | 0.255 µM
18 | COc1ccc(-c2cc(Cn3c(Cl)nc4c3c(=O)n(C)c(=O)n4C)on2)cc1 [Example 77, 8-chloro-7-{[3-(4-methoxyphenyl)-1,2-oxazol-5-yl]methyl}-1,3-dimethyl-2,3,6,7-tetrahydro-1H-purine-2,6-dione] | 19.7 µM
19 | Cn1c(=O)c2c(nc(N3CCNCC3)n2Cc2nnc(-c3ccc4[nH]ncc4c3)o2)n(C)c1=O [Example 124, 7-{[5-(1H-indazol-5-yl)-1,3,4-oxadiazol-2-yl]methyl}-1,3-dimethyl-8-(piperazin-1-yl)-2,3,6,7-tetrahydro-1H-purine-2,6-dione] | 0.309 µM
20 | Cn1c(=O)c2c(nc(N3CCNCC3)n2Cc2nnc(-c3ccc4cc[nH]c4c3)o2)n(C)c1=O [Example 120, 7-{[5-(1H-indol-6-yl)-1,3,4-oxadiazol-2-yl]methyl}-1,3-dimethyl-8-(piperazin-1-yl)-2,3,6,7-tetrahydro-1H-purine-2,6-dione] | 0.0805 µM
21 | Cn1c(=O)c2c(nc(N3CCN(C(=O)OC(C)(C)C)CC3)n2Cc2nnc(-c3ccc(N)cc3)o2)n(C)c1=O [Example 105, tert-butyl 4-(7-{[5-(4-aminophenyl)-1,3,4-oxadiazol-2-yl]methyl}-1,3-dimethyl-2,6-dioxo-2,3,6,7-tetrahydro-1H-purin-8-yl)piperazine-1-carboxylate] | 24.5 µM
22 | Cc1ccc(-c2cc(Cn3c(N4CCNCC4)nc4c3c(=O)n(C)c(=O)n4C)no2)cc1 [Example 79, 1,3-dimethyl-7-{[5-(4-methylphenyl)-1,2-oxazol-3-yl]methyl}-8-(piperazin-1-yl)-2,3,6,7-tetrahydro-1H-purine-2,6-dione] | 0.53 µM
